Experimental data taken from patent publication US20250222120A1, “SYNTHESIS OF NOVEL SMALL MOLECULE CARM1 DEGRADERS, COMPOUNDS FORMED THEREBY, AND PHARMACEUTICAL COMPOSITIONS CONTAINING THEM” (Wisconsin Alumni Research Foundation, priority 2024, published 2025).

Assays:
PRMT1 = target: T1, PRMT1 (Homo sapiens, UniProt Q99873); assay: Global proteomics of MCF7 cells, PRMT1 level; assay type: cell-based; settings: 25 nM, 4 h, versus DMSO
T1 construct: we performed a global quantitative proteomic analysis of MCF7 cells using mass spectrometry; endogenous in cells; host or cells: MCF7
T1 sequence (Q99873 whole entry): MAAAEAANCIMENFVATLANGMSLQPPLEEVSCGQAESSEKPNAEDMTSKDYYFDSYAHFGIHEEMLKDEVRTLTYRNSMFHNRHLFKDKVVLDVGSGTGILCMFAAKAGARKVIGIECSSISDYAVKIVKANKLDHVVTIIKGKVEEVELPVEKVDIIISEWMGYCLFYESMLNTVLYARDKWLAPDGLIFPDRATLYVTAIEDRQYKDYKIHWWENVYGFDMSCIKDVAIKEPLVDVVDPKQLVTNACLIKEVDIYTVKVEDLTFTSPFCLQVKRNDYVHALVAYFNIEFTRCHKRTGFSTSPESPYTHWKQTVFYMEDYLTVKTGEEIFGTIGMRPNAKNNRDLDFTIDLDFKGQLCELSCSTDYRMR
Procedure: Sample preparation for global proteomics analysis. Sample preparation is similar to the previous report (Ma et al. “Strategy Based on Deglycosylation, Multiprotease, and Hydrophilic Interaction Chromatography for Large-Scale Profiling of Protein Methylation” Anal. Chem. 2017, 89 (23), 12909-12917). Briefly, treated MCF7 cells were harvested by washing with PBS buffer (Gibco, pH 7.4) and lysed in RIPA buffer supplemented with protease inhibitors for 20 min, then protein concentration was determined using a BCA Protein Assay Kit (Thermo Pierce, Rockford, IL) per manufacturer instructions. […] The concentrations of the peptide mixture were measured by peptide assay (Thermo Fisher Scientific). […]
LC-MS/MS data acquisition. Samples were analyzed on an Orbitrap Fusion Lumos Tribrid mass spectrometer (Thermo Fisher Scientific) coupled to a Dionex UltiMate 3000 UPLC system. […]
Data analysis. Protein identification and quantification by MaxQuant (version 1.5.3.8) based database searching, using the integrated Andromeda search engine with FDR <1% at peptide and protein levels. […] For label-free protein quantification (LFQ), the MaxQuant LFQ algorithm was used to quantitate the MS signals, and the proteins' intensities were represented in LFQintesnit (Schaab et al. “Analysis of High Accuracy, Quantitative Proteomics Data in the MaxQB Database” Mol. Cell. Proteomics 2012, 11 (3), M111.014068). […]

CARM1 = target: T2, CARM1 (Homo sapiens, UniProt Q86X55); assay: CARM1 degradation by western blot in MCF7 cells; assay type: cell-based; design: Cell lysates were collected and the CARM1 levels were detected by western blots; endogenous in cells; host or cells: MCF7
T2 sequence (Q86X55 1-608): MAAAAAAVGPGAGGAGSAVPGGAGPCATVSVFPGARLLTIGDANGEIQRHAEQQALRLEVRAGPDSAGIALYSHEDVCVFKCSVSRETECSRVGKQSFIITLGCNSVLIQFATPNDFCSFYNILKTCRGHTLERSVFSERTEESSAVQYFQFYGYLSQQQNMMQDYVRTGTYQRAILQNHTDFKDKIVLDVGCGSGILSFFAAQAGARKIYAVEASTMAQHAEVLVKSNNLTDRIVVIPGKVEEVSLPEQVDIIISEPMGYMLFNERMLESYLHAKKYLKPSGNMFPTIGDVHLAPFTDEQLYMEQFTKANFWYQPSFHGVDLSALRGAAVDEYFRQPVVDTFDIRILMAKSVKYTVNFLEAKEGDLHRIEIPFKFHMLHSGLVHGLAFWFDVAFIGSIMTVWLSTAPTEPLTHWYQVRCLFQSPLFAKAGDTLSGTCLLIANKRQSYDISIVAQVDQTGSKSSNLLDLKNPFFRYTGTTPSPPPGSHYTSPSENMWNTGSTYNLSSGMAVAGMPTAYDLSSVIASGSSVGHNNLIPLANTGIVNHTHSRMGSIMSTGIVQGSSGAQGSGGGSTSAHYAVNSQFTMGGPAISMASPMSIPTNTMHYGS

Structure (SMILES): CNCCN1CCC(c2cc(CN(C)C(=O)c3cccc(Oc4ccc(OCC(=O)N5CCC(CN6CCC(CN7CCN(CC(=O)N[C@H](C(=O)N8C[C@H](O)C[C@H]8C(=O)N[C@@H](C)c8ccc(-c9scnc9C)cc8)C(C)(C)C)CC7)CC6)CC5)cc4)c3)ccn2)CC1 [Compound 3b, (2S,4R)-1-((S)-3,3-dimethyl-2-(2-(4-((1-((1-(2-(4-(3-(methyl((2-(1-(2-(methylamino)ethyl)piperidin-4-yl)pyridin-4-yl)methyl)carbamoyl)phenoxy)phenoxy)acetyl)piperidin-4-yl)methyl)piperidin-4-yl)methyl)piperazin-1-yl)acetamido)butanoyl)-4-hydroxy-N—((S)-1-(4-(4-methylthiazol-5-yl)phenyl)ethyl)pyrrolidine-2-carboxamide]
- PRMT1 protein level in proteomics (PRMT1): not significantly changed
- Dmax (CARM1; MCF7, read-out: Dmax of CARM1 degradation, MCF7 cells, 24 h, western blot, three independent experiments): > 95%
- Time after exposure at which CARM1 degradation was observed (CARM1; MCF7 cells, 0.5 μM, time course): 2 h
- CARM1 degradation over time course (CARM1; MCF7 cells, 0.5 μM, up to 48 h): degradation sustained and further maximized over the course of 48 h
- CARM1 degradation activity, rigid linker compared with 2e (CARM1; MCF7 cells, 0.1, 0.5, 1.0 and 10.0 μM, 24 hours, compared with 2e at 0.5 μM): significantly improved CARM1 degradation activity
